Assay results reported in patent publication US9169254B2, “Spiroimidazolone derivative” (Chugai Seiyaku Kabushiki Kaisha, priority 2009, dated 2015).

These compounds were tested against T1, human PTH1 receptor (Homo sapiens, UniProt Q03431) (assay: In vitro cAMP signal activity in HKRK-B7 cells (LLC-PK1 cells overexpressing the human PTH1 receptor)). Details: HKRK-B7 cells; compound at 1×10^−3 M; cAMP produced as percentage of that produced by hPTH(1-34) at 100 nM.
T1 sequence (Q03431 27-593): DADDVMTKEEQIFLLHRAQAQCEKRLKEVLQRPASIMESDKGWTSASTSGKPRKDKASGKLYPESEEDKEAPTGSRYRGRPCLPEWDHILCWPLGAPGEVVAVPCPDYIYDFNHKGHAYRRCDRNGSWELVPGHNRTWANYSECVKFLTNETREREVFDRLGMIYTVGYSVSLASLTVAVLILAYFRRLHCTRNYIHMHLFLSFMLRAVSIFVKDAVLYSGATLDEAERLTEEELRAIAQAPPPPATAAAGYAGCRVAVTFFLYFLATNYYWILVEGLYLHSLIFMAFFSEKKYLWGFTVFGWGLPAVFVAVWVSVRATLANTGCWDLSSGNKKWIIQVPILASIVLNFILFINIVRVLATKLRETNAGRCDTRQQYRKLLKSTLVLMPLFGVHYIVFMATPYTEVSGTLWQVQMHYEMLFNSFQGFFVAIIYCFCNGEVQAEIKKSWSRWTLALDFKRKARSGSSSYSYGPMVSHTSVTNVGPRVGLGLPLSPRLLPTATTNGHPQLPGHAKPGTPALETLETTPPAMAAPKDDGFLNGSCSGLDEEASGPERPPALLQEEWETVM
Assay type: cell-based

First: Cc1cc2ccc1CCS(=O)(=O)N1CCC3(CC1)N=C(NC3=O)c1cc(cc(C(F)(F)F)c1)OCCCCCO[C@H]1CN(C[C@@H]1O)C2=O [Compound 1425]
Second: Cc1cc(C(=O)N2CCC(O)CC2)cc(C)c1/C=C/S(=O)(=O)N1CCC2(CC1)N=C(c1cccc(C(F)(F)F)c1F)NC2=O [Compound 244, 2-(2-fluoro-3-trifluoromethyl-phenyl)-8-{(E)-2-[4-(4-hydroxy-piperidine-1-carbonyl)-2,6-dimethyl-phenyl]-ethenesulfonyl}-1,3,8-triaza-spiro[4.5]dec-1-en-4-one]
The “cAMP production activity (%)” value of the first is lower: 32% for the first, 83% for the second.

Going from `Cc1cc(N2C(=O)NC(CO)C2=O)cc(C)c1CCS(=O)(=O)N1CCC2(CC1)N=C([C@H]1CC[C@H](C)CC1)NC2=O` (stereo partly drawn) [Compound 1299, 3-(3,5-Dimethyl-4-{2-[2-(4-methyl-cyclohexyl)-4-oxo-1,3,8-triaza-spiro[4.5]dec-1-ene-8-sulfonyl]-ethyl}-phenyl)-5-hydroxymethyl-imidazolidine-2,4-dione] to `Cc1cc(CN2C(=O)NC(C)(C)C2=O)cc(C)c1CCS(=O)(=O)N1CCC2(CC1)N=C(C1CCC(C)CC1)NC2=O` (stereo not drawn) [Compound 780, 3-(3,5-dimethyl-4-{2-[2-(4-methyl-cyclohexyl)-4-oxo-1,3,8-triaza-spiro[4.5]dec-1-ene-8-sulfonyl]-ethyl}-benzyl)-5,5-dimethyl-imidazolidine-2,4-dione], the “cAMP production activity (%)” value falls from 87% to 48%.

Compared with `CC(=O)N(C)c1ccc(C)c(/C=C/S(=O)(=O)N2CCC3(CC2)N=C(c2cccc(OC(F)(F)F)c2)NC3=O)c1` [Compound 225, N-methyl-N-(4-methyl-3-{(E)-2-[4-oxo-2-(3-trifluoromethoxy-phenyl)-1,3,8-triaza-spiro[4.5]dec-1-ene-8-sulfonyl]-vinyl}-phenyl)-acetamide], `Cc1cc(NCC(N)=O)ccc1CCS(=O)(=O)N1CCC2(CC1)N=C(c1cccc(OC(F)(F)F)c1)NC2=O` [Compound 847, 2-(3-methyl-4-{2-[4-oxo-2-(3-trifluoromethoxy-phenyl)-1,3,8-triaza-spiro[4.5]dec-1-ene-8-sulfonyl]-ethyl}-phenylamino)-acetamide] is higher in “cAMP production activity (%)” value: 47% for the first, 71% for the second.

Going from `Cc1cc(C(=O)N(C)C)ccc1CCS(=O)(=O)N1CCC2(CC1)N=C(c1cccc(-c3c(C)noc3C)c1)NC2=O` [Compound 171, 4-(2-{2-[3-(3,5-Dimethyl-isoxazol-4-yl)-phenyl]-4-oxo-1,3,8-triaza-spiro[4.5]dec-1-ene-8-sulfonyl}-ethyl)-3,N,N-trimethyl-benzamide] to `Cc1cc(C(=O)N(C)C)ccc1CCS(=O)(=O)N1CCC2(CC1)N=C(c1ccc(Cl)cc1)NC2=O` [Compound 87, 4-{2-[2-(4-chloro-phenyl)-4-oxo-1,3,8-triaza-spiro[4.5]dec-1-ene-8-sulfonyl]-ethyl}-3,N,N-trimethyl-benzamide], the “cAMP production activity (%)” value falls from 36% to 6.7%.

Compared with `Cc1cc(OC[C@H](O)CO)cc(C)c1/C=C/S(=O)(=O)N1CCC2(CC1)N=C(c1ccc3c(c1)OC(F)(F)O3)NC2=O` [Compound 1165, 2-(2,2-difluoro-benzo[1,3]dioxol-5-yl)-8-{(E)-2-[4-((R)-2,3-dihydroxy-propoxy)-2,6-dimethyl-phenyl]-ethenesulfonyl}-1,3,8-triaza-spiro[4.5]dec-1-en-4-one], `Cc1cc(C(=O)N2CCC(C)(O)CC2)cc(C)c1/C=C/S(=O)(=O)N1CCC2(CC1)N=C(c1ccc(C(F)F)c(F)c1)NC2=O` [Compound 1219, 2-(4-difluoromethyl-3-fluoro-phenyl)-8-{(E)-2-[4-(4-hydroxy-4-methyl-piperidine-1-carbonyl)-2,6-dimethyl-phenyl]-ethenesulfonyl}-1,3,8-triaza-spiro[4.5]dec-1-en-4-one] is higher in “cAMP production activity (%)” value: 4.3% for the first, 67% for the second.

Going from `CCCCC1CCC(C2=NC3(CCN(S(=O)(=O)/C=C/c4c(C)cc(N(CCOCCO)C(C)=O)cc4C)CC3)C(=O)N2)CC1` (stereo not drawn) [Compound 716, N-(4-{(E)-2-[2-(4-Butyl-cyclohexyl)-4-oxo-1,3,8-triaza-spiro[4.5]dec-1-ene-8-sulfonyl]-vinyl}-3,5-dimethyl-phenyl)-N-[2-(2-hydroxy-ethoxy)-ethyl]-acetamide] to `Cc1cc(CO)cc(C)c1CCS(=O)(=O)N1CCC2(CC1)N=C(C1CCC(CCC(F)(F)F)CC1)NC2=O` (stereo not drawn) [Compound 770, 8-[2-(4-hydroxymethyl-2,6-dimethyl-phenyl)-ethanesulfonyl]-2-[4-(3,3,3-trifluoro-propyl)-cyclohexyl]-1,3,8-triaza-spiro[4.5]dec-1-en-4-one], the “cAMP production activity (%)” value rises from 62% to 105%.

Going from `CCOC(=O)CCCCCCCCCCCC1=NC2(CCN(S(=O)(=O)/C=C/c3c(C)cc(N(C)C(N)=O)cc3C)CC2)C(=O)N1` [Compound 1132, 12-(8-{(E)-2-[2,6-dimethyl-4-(1-methyl-ureido)-phenyl]-ethenesulfonyl}-4-oxo-1,3,8-triaza-spiro[4.5]dec-1-en-2-yl)-dodecanoic acid ethyl ester] to `Cc1cc(C(=O)N2CCC(C)(O)CC2)cc(C)c1/C=C/S(=O)(=O)N1CCC2(CC1)N=C(c1ccc(C(F)(F)C(F)(F)F)cc1)NC2=O` [Compound 1195, 8-{(E)-2-[4-(4-hydroxy-4-methyl-piperidine-1-carbonyl)-2,6-dimethyl-phenyl]-ethenesulfonyl}-2-(4-pentafluoroethyl-phenyl)-1,3,8-triaza-spiro[4.5]dec-1-en-4-one], the “cAMP production activity (%)” value rises from 80% to 82%.

Going from `CCCOC1CCC(C2=NC3(CCN(S(=O)(=O)CCc4ccc(NC(C)=O)cc4C)CC3)C(=O)N2)CC1` (stereo not drawn) [Compound 911, N-(3-methyl-4-{2-[4-oxo-2-(4-propoxy-cyclohexyl)-1,3,8-triaza-spiro[4.5]dec-1-ene-8-sulfonyl]-ethyl}-phenyl)-acetamide] to `CC[C@H]1CC[C@H](C2=NC3(CCN(S(=O)(=O)CCc4ccc(N5C(=O)NC(=O)C5C)cc4C)CC3)C(=O)N2)CC1` (stereo partly drawn) [Compound 879, 1-(4-{2-[2-(4-ethyl-cyclohexyl)-4-oxo-1,3,8-triaza-spiro[4.5]dec-1-ene-8-sulfonyl]-ethyl}-3-methyl-phenyl)-5-methyl-imidazolidine-2,4-dione], the “cAMP production activity (%)” value falls from 71% to 70%.

First: Cc1cc(C(=O)N2CCN(S(=O)(=O)N(C)C)CC2)ccc1CCS(=O)(=O)N1CCC2(CC1)N=C(c1cccc(C(F)(F)F)c1)NC2=O [Compound 360, 4-(3-methyl-4-{2-[4-oxo-2-(3-trifluoromethyl-phenyl)-1,3,8-triaza-spiro[4.5]dec-1-ene-8-sulfonyl]-ethyl}-benzoyl)-piperazine-1-sulfonic acid dimethylamide]
Second: Cc1cc(C2=NC3(CCN(S(=O)(=O)CCc4c(C)cc(C(=O)N5CCC(O)(CF)CC5)cc4C)CC3)C(=O)N2)ccc1C(F)(F)F [Compound 1277, 8-{2-[4-(4-fluoromethyl-4-hydroxy-piperidine-1-carbonyl)-2,6-dimethyl-phenyl]-ethanesulfonyl}-2-(3-methyl-4-trifluoromethyl-phenyl)-1,3,8-triaza-spiro[4.5]dec-1-en-4-one]
The “cAMP production activity (%)” value of the first is lower: 62% for the first, 95% for the second.

Going from `CNc1cc(C)c(CCS(=O)(=O)N2CCC3(CC2)N=C(C(C)(F)F)NC3=O)c(C)c1.Cl` [Compound 1287, 2-(1,1-difluoro-ethyl)-8-[2-(2,6-dimethyl-4-methylamino-phenyl)-ethanesulfonyl]-1,3,8-triaza-spiro[4.5]dec-1-en-4-one hydrochloride] to `CC(=O)NNC(=O)c1cc(C)c(CCS(=O)(=O)N2CCC3(CC2)N=C(C2CCC(CCC(F)(F)F)CC2)NC3=O)c(C)c1` (stereo not drawn) [Compound 769, 3,5-dimethyl-4-(2-{4-oxo-2-[4-(3,3,3-trifluoro-propyl)-cyclohexyl]-1,3,8-triaza-spiro[4.5]dec-1-ene-8-sulfonyl}-ethyl)-benzoic acid N′-acetyl-hydrazide], the “cAMP production activity (%)” value falls from 64% to 55%.

First: O=C1NC(c2ccc(Cl)cc2Cl)=NC12CCN(S(=O)(=O)CCc1cccc3ccccc13)CC2 [Compound 47, 2-(2,4-dichloro-phenyl)-8-(2-naphthalen-1-yl-ethanesulfonyl)-1,3,8-triaza-spiro[4.5]dec-1-en-4-one]
Second: CC(C)(C)OCC(=O)N1CCCC(C2=NC3(CCN(S(=O)(=O)CCc4cccc5ccccc45)CC3)C(=O)N2)C1 (stereo not drawn) [Compound 439, 2-[1-(2-tert-butoxy-acetyl)-piperidin-3-yl]-8-(2-naphthalen-1-yl-ethanesulfonyl)-1,3,8-triaza-spiro[4.5]dec-1-en-4-one]
The “cAMP production activity (%)” value of the first is higher: 45% for the first, 33% for the second.

Compared with `Cc1cc(CN2C(=O)CNC2=O)cc(C)c1CCS(=O)(=O)N1CCC2(CC1)N=C(C1CCC(CCC(F)(F)F)CC1)NC2=O` (stereo not drawn) [Compound 774, 3-[3,5-dimethyl-4-(2-{4-oxo-2-[4-(3,3,3-trifluoro-propyl)-cyclohexyl]-1,3,8-triaza-spiro[4.5]dec-1-ene-8-sulfonyl}-ethyl)-benzyl]-imidazolidine-2,4-dione], `NCCn1ccc2c(/C=C/S(=O)(=O)N3CCC4(CC3)N=C(C3CCCCC3)NC4=O)cccc21` [Compound 686, 8-{(E)-2-[1-(2-Amino-ethyl)-1H-indol-4-yl]-ethenesulfonyl}-2-cyclohexyl-1,3,8-triaza-spiro[4.5]dec-1-en-4-one] is lower in “cAMP production activity (%)” value: 80% for the first, 22% for the second.
